According to US6759521B2, “Polarization switching to control crystal form” (priority 2000, dated 2004):

Conditions: glycine in water, room temperature (21 C)
Protocol: Supersaturated solutions of glycine in water, with concentrations ranging from 3.7 M to 3.9 M, were prepared by combining appropriate amounts of solid glycine with 2 g of water in 1.3-cm diameter Pyrex test tubes with screw-on caps. Great care was taken to exclude dust from samples. Supersaturation was achieved by heating the samples in an ultrasonic bath at 50 C, and holding them at that temperature until the glycine was completely dissolved.

- csat, concentration of a saturated solution: 2.69 M
SMILES: NCC(=O)O [glycine]
